The target of test [1] is DGKzeta (hDGKzeta(1-928)-N-His) (Homo sapiens (Human), UniProt Q13574). In words: In vitro DGK inhibition assay, ADP-Glo (in house), DGKzeta. It counts as biochemical. The settings on record: DLG liposomes, 50 μM ATP, 2 nM enzyme, 1 hour reaction. On the procedure: (§1) DGK α and ζ kinases use ATP to phosphorylate the substrate 1,2-dilauroyl-sn-glycerol (DLG, incorporated in the liposomes). ATP is converted to ADP as a result of this enzymatic reaction.
(§2) After the kinase reaction, an ATP-depletion reagent is added to terminate the kinase reaction and deplete any remaining ATP, leaving only ADP. Second, a detection reagent is added to simultaneously convert ADP to ATP and allow the newly synthesized ATP to be converted to light using a coupled luciferase/luciferin reaction.
(§3) Purification of both enzymes was performed as previously described by Takahashi et al., PeerJ, 2018 (Takahashi, D.; Sakane, F. Expression and purification of human diacylglycerol kinase alpha from baculovirus-infected insect cells for structural studies. PeerJ 2018, 6, No. e5449).
(§4) A concentrated liposome solution was prepared in assay buffer without DTT and BSA: 2 mM of DLG in 21 mM of total liposome (2 mM DLG/8 mM PS/11 mM PC). The reaction mixtures contain the assay buffer with a final DLG concentration of 125 uM ATP concentrations of 25 μM (for DGKA assay) or 50 μM (for DGKZ assay). The reactions were started by addition of DGK α and ζ kinases at 4 nM and 2 nM final concentrations, respectively. After 1 hour reaction, the amount of ADP formed was detected with the ADP-Glo kinase assay (Promega) according to the manufacturer instructions. Compounds were added in 11-points dose response, starting at […], 1:3 dilutions, with a final DMSO concentration of 2%. The multidrop combi was used as a liquid handler and luminescence was read with 0.5 s by the envision reader (PE).
On the technique in general: ADP-Glo turns the ADP formed in a reaction into a luminescent signal.

Test [2] concerns primary human T-cells. In words: IL2 secretion measurements in CD3-stimulated T-cells. The settings on record: CD3 condition; for Emax IL2 (% activation): 24 hours, 20 μM reference compound A1 = 100%; for pEC50: Homo sapiens, T-cell, IL2 secretion after 24 hours, read-out: Tcell IL2 CD3 EC50. It is filed as cell-based. In outline:
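Expanded primary human T-cells (100 k/well, RPMI + 5% human serum) on plate-bound anti-CD3 (donor-titrated) or PBS counter-screen wells, 5–6 pt dose response from 20 or 10 μM top (dilution factor 3.333), 0.2% DMSO final. IL-2 in 24 h supernatant by ProQuantum immunoassay or ELISA. Normalised to DMSO (0%) and 20 μM reference A1 (100%); EC50 and Emax from sigmoidal fit.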

In test [3] the test system is primary human T-cells. Description: T-cell proliferation assay (CellTiter-Glo). It is filed as cell-based. Particulars: CD3 condition; for Emax proliferation (% activation): 5 days, 20 μM reference compound A1 = 100%; for pEC50: Homo sapiens, T-cell, 120 h, proliferation after 5 days, CellTiter-Glo, read-out: Tcell Proliferation CD3 EC50. In general terms: In ATP-based viability assays light output follows the ATP content of the culture.

The target of test [4] is DGKalpha (hDGKalpha(1-735)-N-His) (Homo sapiens (Human), UniProt P23743). In words: In vitro DGK inhibition assay, ADP-Glo (in house), DGKalpha. It counts as biochemical. The settings on record: DLG liposomes, 25 μM ATP, 4 nM enzyme, 1 hour reaction. On the procedure: as §1, §2, §3, §4

From patent publication US20250236617A1, “BICYCLIC TETRAHYDROTHIAZEPINE DERIVATIVES” (Hoffmann-La Roche Inc., priority 2022, published 2025) come the findings set out here.

pEC50, pIC50: −log10 of the molar value.

What is called pIC50 is the negative decadic logarithm of the IC50, by convention in mol/L.

DGKalpha (hDGKalpha(1-735)-N-His), sequence (P23743 whole entry): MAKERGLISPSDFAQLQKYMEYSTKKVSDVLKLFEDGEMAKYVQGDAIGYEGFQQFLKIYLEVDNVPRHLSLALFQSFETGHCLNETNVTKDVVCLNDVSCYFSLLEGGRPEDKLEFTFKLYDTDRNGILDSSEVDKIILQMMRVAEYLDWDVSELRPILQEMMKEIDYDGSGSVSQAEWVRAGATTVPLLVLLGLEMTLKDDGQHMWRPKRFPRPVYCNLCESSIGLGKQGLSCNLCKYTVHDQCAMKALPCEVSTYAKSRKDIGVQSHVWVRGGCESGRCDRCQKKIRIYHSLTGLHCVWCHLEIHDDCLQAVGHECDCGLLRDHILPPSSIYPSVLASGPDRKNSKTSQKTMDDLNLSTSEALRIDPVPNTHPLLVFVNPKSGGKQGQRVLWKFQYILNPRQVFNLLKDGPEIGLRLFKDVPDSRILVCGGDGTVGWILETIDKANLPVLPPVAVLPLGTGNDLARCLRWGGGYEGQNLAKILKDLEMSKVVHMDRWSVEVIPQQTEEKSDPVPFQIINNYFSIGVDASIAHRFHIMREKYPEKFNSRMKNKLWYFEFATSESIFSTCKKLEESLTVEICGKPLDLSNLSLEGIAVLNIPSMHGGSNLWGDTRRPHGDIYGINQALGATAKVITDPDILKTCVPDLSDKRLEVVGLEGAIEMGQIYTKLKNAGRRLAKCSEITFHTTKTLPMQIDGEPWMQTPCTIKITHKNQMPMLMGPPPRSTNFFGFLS
DGKzeta (hDGKzeta(1-928)-N-His), sequence (Q13574 whole entry): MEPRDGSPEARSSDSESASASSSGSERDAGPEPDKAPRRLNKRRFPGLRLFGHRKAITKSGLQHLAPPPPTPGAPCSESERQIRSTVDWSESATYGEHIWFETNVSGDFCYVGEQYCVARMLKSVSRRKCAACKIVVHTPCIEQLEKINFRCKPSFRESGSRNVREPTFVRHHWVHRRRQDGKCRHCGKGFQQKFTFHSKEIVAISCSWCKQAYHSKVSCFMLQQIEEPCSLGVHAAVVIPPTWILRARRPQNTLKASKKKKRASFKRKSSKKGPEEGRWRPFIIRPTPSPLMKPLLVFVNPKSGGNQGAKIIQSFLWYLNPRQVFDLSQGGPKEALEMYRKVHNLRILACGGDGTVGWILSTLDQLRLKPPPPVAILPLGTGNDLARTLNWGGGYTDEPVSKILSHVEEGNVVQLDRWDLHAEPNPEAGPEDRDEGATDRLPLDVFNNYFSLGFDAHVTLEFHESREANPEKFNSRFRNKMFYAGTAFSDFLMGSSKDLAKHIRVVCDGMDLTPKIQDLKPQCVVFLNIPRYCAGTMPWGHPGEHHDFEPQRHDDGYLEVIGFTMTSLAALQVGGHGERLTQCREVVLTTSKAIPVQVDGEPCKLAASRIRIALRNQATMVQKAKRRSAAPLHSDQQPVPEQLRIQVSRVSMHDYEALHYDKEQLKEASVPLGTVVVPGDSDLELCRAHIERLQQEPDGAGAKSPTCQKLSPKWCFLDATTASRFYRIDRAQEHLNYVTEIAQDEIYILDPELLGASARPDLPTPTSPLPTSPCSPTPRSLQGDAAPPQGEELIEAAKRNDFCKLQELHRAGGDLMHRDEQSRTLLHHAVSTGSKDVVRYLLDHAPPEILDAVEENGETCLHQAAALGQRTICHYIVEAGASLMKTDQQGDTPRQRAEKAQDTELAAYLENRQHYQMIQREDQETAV

For the compound `CC(C)(C)c1cc(-c2cc3c(cc2F)S(=O)(=O)C[C@H](N)C(=O)N3Cc2ccc(Cl)cc2)cnn1` [Example 31, (3R)-3-amino-7-(6-tert-butylpyridazin-4-yl)-5-[(4-chlorophenyl)methyl]-8-fluoro-1,1-dioxo-2,3-dihydro-1λ6,5-benzothiazepin-4-one], the negative-log IC50 (pIC50) in test [1] is 5.41; in test [4], 4.45. In addition, in the test with primary human T-cells [2], the “Emax IL2 (% activation)” value came to 80 % activation. In addition, the pEC50 in the test on primary human T-cells [2] was 5.96; in the test on primary human T-cells [3], 6.30. The “Emax proliferation (% activation)” value in the test with primary human T-cells [3] came out at 112 % activation.
In turn, `CC(C)(C)c1cc(-c2cc3c(cc2F)S(=O)(=O)C[C@H](N)C(=O)N3Cc2ccc(-c3ccc(C(F)(F)F)cn3)cc2)cnn1` [Example 32, (3R)-3-amino-7-(6-tert-butylpyridazin-4-yl)-8-fluoro-1,1-dioxo-5-[[4-[5-(trifluoromethyl)-2-pyridyl]phenyl]methyl]-2,3-dihydro-1λ6,5-benzothiazepin-4-one] had a negative-log IC50 (pIC50) in test [1] of 5.49. In the test with primary human T-cells [2], the “Emax IL2 (% activation)” value is 53 % activation and the pEC50 was 6.02. Further, in the test with primary human T-cells [3], the “Emax proliferation (% activation)” value came out at 164 % activation and the pEC50 was 6.36. In test [4], this compound had a negative-log IC50 (pIC50) of 4.89.
